Reference: patent US20150018305A1, “SIRTUIN INDUCER, TISSUE REPAIRING AGENT, HEPATOCYTE GROWTH FACTOR INDUCER, TISSUE HOMEOSTASIS MAINTENANCE AGENT, AND TLR4 AGONIST, HAVING HYALURONIC ACID FRAGMENT AS ACTIVE INGREDIENT” (HYALURONAN RESEARCH INSTITUTE, INC., priority 2012, published 2015)

How the values were obtained:
[1] = test system: stem cells of human epidermal keratinocytes; experiment: Count of small dividing cells with high sirtuin protein expression, with or without TLR4/MD2 (Test Examples 4-6); format: cell-based; conditions: for sirtuin protein expression in stem cells (count of small dividing cells with high sirtuin expression) vs negative control: 24 hours; for sirtuin induction in stem cells upon addition of TLR4/MD2: 10 ng/ml fragment plus 1 g/ml of TLR4/MD2
Description: A test of sirtuin induction in human epidermal keratinocytes was conducted in the same manner as in Test Example 1.
The results are shown as average count within the observed visual field.
In the meantime, similar observations were made in relation to human epidermal keratinocytes cultured in a culture broth to which 10 ng/ml of hyaluronic acid fragment (4mer) and 1 g/ml of TLR4/MD2 (TLR4 (toll-like receptor 4) protein produced by genetic recombination techniques, made by R&D Systems Inc.) were added.
A test similar to Test Example 5 was carried out, using chemically synthesized three-unit size hyaluronic acid fragments (L3mer) in place of hyaluronic acid fragment (4mer).

[2] = test system: liver of aged rat; experiment: Liver of aged rat preserved in organ preservation solution, microscopy and bleb count (Test Example 14); conditions: for sinusoidal constriction and appearance of blebs in liver tissue slice: 100 ng/ml in organ preservation solution, SD rats aged 24 months
Description: The effect of action of the hyaluronic acid fragment on the liver of aged rat was investigated. The following test solutions were prepared.
(Test Solutions) • Organ preservation solution (University of Wisconsin solution: the standard solution used for organ preservation) • The above organ preservation solution, into which hyaluronic acid fragment (4mer) was dissolved to a final concentration of 100 ng/ml • The above organ preservation solution, into which hyaluronic acid fragment (L3mer) was dissolved to a final concentration of 100 ng/ml • The above organ preservation solution, into which hyaluronic acid fragment (L3mer) was dissolved to a final concentration of 100 ng/ml, then dissolving TLR4/MD2 into the above organ preservation solution, to a final concentration of 10 μg/ml.
SD rats aged 24 months (aged rats) were injected with the test solutions from the hepatic portal, and after perfusion of 7.5 ml, were preserved for six hours in the same solution at 37° C. Slices were prepared from blocks prepared by freezing of the livers embedded in OCT compound, and were subjected to microscope examination.
Prior to preservation, distinct sinusoids could be observed. […] Blebs (bubbles) that appear in ischemic liver tissue arise as a result of an activation of Ca ion-dependent proteolytic enzymes and a disorder of the cytoskeletal system, in which lowered ATP levels due to ischemia lead to effusion of Ca ions from the mitochondria to the cellular cytoplasm. In the course of passing through these changes, the liver cells experience cell death. Such changes have been confirmed to occur in clinical conditions such as pharmaceutical toxicity, aging, and the like, and in concanavalin A-induced liver damage.

[3] = test system: human large intestine epithelial cells (HT29 cells); experiment: Hydrogen peroxide induced aging of human large intestine epithelial cells, MTS assay (Test Examples 16-18); format: cell-based; conditions: for suppression of cellular aging (MTS value, OD 490 nm): hydrogen peroxide 10 μM 15 min; for suppression of cellular aging with TLR4/MD2 added (MTS): hydrogen peroxide 10 μM, 100 ng/ml plus TLR4/MD2 10 μg/ml, 3 hours
Description: Human large intestine epithelial cells (HT29 cells) were experienced cellular aging (decline in mitochondrial activity due to injury, or a drop in the MTS value once cell death occurs) due to stimulation by the hydrogen peroxide when treated with hydrogen peroxide, and it was investigated whether this process is affected by treatment with the hyaluronic acid fragment. Specifically, the following test was performed.
Using a DMEM culture medium (made by Wako Pure Chemical Industries, Ltd.), human large intestine epithelial cells (HT29 cells) were cultured by usual methods at 37° C. under 5% CO2. Hydrogen peroxide was added to the culture medium to a final concentration of 10 μM to bring about stimulation for a 15-minute period, and the culture broth was then transferred to DMEM culture medium containing no hyaluronic acid fragments; to DMEM culture medium containing hyaluronic acid fragment (4mer) in a final concentration of 100 ng/ml; or to DMEM culture medium containing the hyaluronic acid fragment (4mer) plus TLR4/MD2 in a final concentration of 10 μg/ml, and cultured for 3 hours.
(§1) After 3 hours had passed, an MTS assay was performed. On the basis of the action, in which MTS is converted to formazan by dehydrogenation in the mitochondria of the cell, OD 490 nm was measured to measure mitochondrial function.
Using hyaluronic acid fragment (4mer), hyaluronic acid fragment (L4mer) and hyaluronic acid fragment (L3mer) as test substances, tests similar to those of Test Example 16 were performed, except that the culture time following transfer to the culture medium containing the test substance was one hour.
Tests similar to those of Test Example 16 were performed, except for using hyaluronic acid fragment (L4mer), and hyaluronic acid fragment (L3mer) as test substances.

[4] = test system: human oral epithelial cells (Ca9-22 cells); experiment: Hydrogen peroxide induced aging of human oral epithelial cells, MTS assay (Test Example 19); format: cell-based; conditions: hydrogen peroxide 1 μM 15 min, then 100 ng/ml for 3 hours
Description: It was investigated whether the process, in which mitochondrial function of human oral epithelial cells (Ca9-22 cells) declines when treated with hydrogen peroxide, is affected by treatment with the hyaluronic acid fragment. Specifically, the following test was performed.
Using a DMEM culture medium (made by Wako Pure Chemical Industries, Ltd.), human oral epithelial cells (Ca9-22 cells) were cultured by usual methods at 37° C. under 5% CO2. Hydrogen peroxide was added to the culture medium to a final concentration of 1 μM to bring about stimulation for a 15-minute period, and the culture broth was then transferred to DMEM culture medium containing no hyaluronic acid fragments; to DMEM culture medium containing hyaluronic acid fragment (L3mer) in a final concentration of 100 ng/ml; to DMEM culture medium containing hyaluronic acid fragment (4mer) in a final concentration of 100 ng/ml; or to DMEM culture medium containing 900 kDa hyaluronic acid in a final concentration of 100 ng/ml, and cultured for 3 hours.
as §1

[5] = test system: Keratin K14; experiment: Keratinocyte marker Keratin K14 in human epidermal keratinocytes (Test Example 22); format: cell-based; conditions: for Keratin K14 induction with TLR4/MD2 added: plus TLR4/MD2 1 μg/ml; for cells with high expression of Keratin K14 (immunostaining intensity): stimulated as in Test Example 1
Description: (§2) Human epidermal keratinocytes were stimulated in the same manner as in Test Example 1, except for using the 4mer or the L3mer as the hyaluronic acid fragment, and further adding TLR4/MD2 to a final concentration of 1 μg/ml.
The cells in each well were stained with anti keratin K14 antibody, and the immunostaining intensity was measured with an Array Scan scanning device (made by Thermo Scientific). Keratin K14 is a marker of basal layer keratinocytes.

[6] = test system: filaggrin; experiment: Keratinocyte marker Filaggrin in human epidermal keratinocytes (Test Example 23); format: cell-based; conditions: for filaggrin induction with TLR4/MD2 added: plus TLR4/MD2 1 μg/ml; for cells with high expression of filaggrin (immunostaining intensity): stimulated as in Test Example 1
Description: as §2
The cells in each well were stained with the anti filaggrin antibody, and the immunostaining intensity was measured with an Array Scan scanning device (made by Thermo Scientific). Filaggrin, which is produced by granular layer keratinocytes, is a marker of mature keratinocytes.

[7] = then test substance for one hour

SMILES | sirtuin protein expression in stem cells (count of small dividing cells with high sirtuin expression) vs negative control ([1]; 0.01 ng/ml) | sirtuin induction in stem cells upon addition of TLR4/MD2 [1] | sirtuin protein expression in stem cells (count of small dividing cells with high sirtuin expression) vs negative control ([1]; 10 ng/ml) | sinusoidal constriction and appearance of blebs in liver tissue slice ([2]; six hours at 37° C.) | suppression of cellular aging (MTS value, OD 490 nm) ([3]; then 100 ng/ml for 3 hours) | suppression of cellular aging (MTS value, OD 490 nm) [3, 7] | suppression of cellular aging with TLR4/MD2 added (MTS) [3] | suppression of cellular aging (MTS, mitochondrial function) [4] | Keratin K14 induction with TLR4/MD2 added [5] | cells with high expression of Keratin K14 (immunostaining intensity) [5] | filaggrin induction with TLR4/MD2 added [6] | cells with high expression of filaggrin (immunostaining intensity) [6] | effect in suppressing the appearance of blebs with TLR4/MD2 added (bleb count) ([2]; 100 ng/ml plus TLR4/MD2 10 μg/ml) | condition of liver tissue slice with TLR4/MD2 added ([2]; 100 ng/ml plus TLR4/MD2 10 μg/ml, six hours at 37° C.) | effect of suppressing the appearance of blebs (bleb count per unit surface area) ([2]; 100 ng/ml, comparison L3mer vs 4mer)
CC(=O)N[C@H]1[C@H](O[C@H]2[C@H](O)[C@@H](O)[C@H](O[C@H]3[C@H](O)[C@@H](CO)OC(O)[C@@H]3NC(C)=O)O[C@@H]2C(=O)O)O[C@H](CO)[C@@H](O)[C@@H]1O[C@@H]1O[C@H](C(=O)O)[C@@H](O)[C@H](O)[C@H]1O (some centres unmarked) [4mer, GlcA(-GlcNAc-GlcA)1-GlcNAc] | markedly promoted | completely inhibited | markedly promoted | sinusoidal constriction and appearance of blebs were suppressed | suppressed cellular aging | showed effect in suppressing cellular aging | inhibited by addition of TLR4/MD2 | suppress cellular aging | inhibited by addition of TLR4/MD2 | cells with high expression of Keratin K14 increased | inhibited by addition of TLR4/MD2 | cells with high expression of filaggrin increased |  |  | 
CC(=O)NC1C(O[C@@H]2OC(C(=O)O)[C@@H](O)C(O)C2O)[C@H](O)C(CO)O[C@H]1O[C@@H]1C(C(=O)O)O[C@@H](OCCCN=[N+]=[N-])C(O)C1O (some centres unmarked) [L3mer] |  | substantially completely inhibited | give rise to sirtuin induction | sinusoidal constriction and appearance of blebs were suppressed | showed effect in suppressing cellular aging | showed effect in suppressing cellular aging | inhibited by the addition of TLR4/MD2 | suppress cellular aging | inhibited by addition of TLR4/MD2 | cells with high expression of Keratin K14 increased | inhibited by addition of TLR4/MD2 | cells with high expression of filaggrin increased | reduced by the addition of TLR4/MD2 | numerous blebs (bubbles) appeared | higher with L3mer treatment than with 4mer treatment
